Data: patent US9993518B2, “Association of a tetrapeptide and a glyceryl ester for treating androgenic alopecia” (PIERRE FABRE DERMO-COSMETIQUE, priority 2014, dated 2018)

Experiments:
Format in all cases: cell-based
Conditions in all cases: human hair follicles, 6 h, Control RQ = 1, average of two donors
FZD1 gene = FZD1 gene expression in cultured human hair follicle bulbs, quantitative real-time PCR
Description: (§1) Hair follicle bulbs derived from plastic surgery waste (face lifts) from two donors were isolated by microdissection, cultured and treated for 6 hours with the active agents (acetyl tetrapeptide-3, glyceryl laurate, and the association thereof). RNA was extracted, assayed, reverse-transcribed and the expression of a panel of genes expressed in the pilosebaceous follicle was analyzed by quantitative real-time PCR.
(§2) The analysis of the results generated in this study led, for each condition applied and each gene of interest studied, to the calculation of a relative quantity (RQ). RQ corresponds to the expression level of a gene relative to its basal expression level (expression level obtained for the Control condition, the RQ of which is set to 1). Thus, the modulation of a gene's expression level is considered significant when: • the RQ is greater than or equal to 2: the gene is expressed two times more than in the Control condition • the RQ is less than or equal to 0.5: the gene is expressed two times less than in the Control condition.
(§3) The set of results presented below corresponds to the average results obtained for the two donors of the study.

SFRP1 gene = SFRP1 gene expression in cultured human hair follicle bulbs, quantitative real-time PCR
Description: as §1, §2, §3

KRT17 gene = KRT17 gene expression in cultured human hair follicle bulbs, quantitative real-time PCR
Description: as §1, §2, §3

KRT25 gene = KRT25 gene expression in cultured human hair follicle bulbs, quantitative real-time PCR
Description: as §1, §2, §3

KRT27 gene = KRT27 gene expression in cultured human hair follicle bulbs, quantitative real-time PCR
Description: as §1, §2, §3

KRT81 gene = KRT81 gene expression in cultured human hair follicle bulbs, quantitative real-time PCR
Description: as §1, §2, §3

## acetyl tetrapeptide-3 (Ac-KGHK-NH2) [ATP-3, CAS number 827306-88-7]
FZD1 gene; 20 μM
  RQ (relative quantity), expression level of the FZD1 gene: 1.2
SFRP1 gene; 20 μM
  RQ (relative quantity), expression level of the SFRP1 gene: 1.3
KRT17 gene; 20 μM
  RQ (relative quantity), expression level of the KRT17 gene: 0.8
KRT25 gene; 20 μM
  RQ (relative quantity), expression level of the KRT25 gene: 1.7
KRT27 gene; 20 μM
  RQ (relative quantity), expression level of the KRT27 gene: 1.4
KRT81 gene; 20 μM
  RQ (relative quantity), expression level of the KRT81 gene: 1.5

## CCCCCCCCCCCC(=O)OCC(O)CO (stereo not drawn) [GL, glyceryl laurate]
FZD1 gene; 10 μM
  RQ (relative quantity), expression level of the FZD1 gene: 1.3
SFRP1 gene; 10 μM
  RQ (relative quantity), expression level of the SFRP1 gene: 0.9
KRT17 gene; 10 μM
  RQ (relative quantity), expression level of the KRT17 gene: 1.1
KRT25 gene; 10 μM
  RQ (relative quantity), expression level of the KRT25 gene: 1.3
KRT27 gene; 10 μM
  RQ (relative quantity), expression level of the KRT27 gene: 1.3
KRT81 gene; 10 μM
  RQ (relative quantity), expression level of the KRT81 gene: 1.8
